Where no end group is shown, it is not given here. The star is where a group is joined. Myristoyl = CCCCCCCCCCCCCC(=O)*
Columns and labels:
Mut-p53 (R175H p53) = target: T1, Mut-p53 (R175H p53) (Homo sapiens, UniProt P04637, R175H); assay: Sandwich ELISA for p53 conformation (PAb1620/PAb240 reactivity); type: biochemical; settings: extract of H1299 cells overexpressing R175H p53; peptide 50 ng/ml, 2 hours
T1 construct: a hot spot full length mutant p53 Mut-p53 R175H (R175H p53); expressed in transfected cells; host or cells: H1299 (p53-null) cells stably overexpressing R175H p53; cell extract
Description: To measure the conformational effect of the peptides on Mut-p53, a micro-titer plate was coated with either PAb240, PAb1620 or pAb421 (as a positive control and standard for total p53 protein, since the antibody used recognizes both WT and mutant conformations), overnight incubated, washed, blocked, and cell extracts (with or without peptides) were added for an additional 2 hours. After removal of extracts, plates were washed and incubated with the αp53-HRP conjugated Ab for the detection of p53 levels. A TMB (substrate of HRP) assay was performed and optical density was determined at 450 nm. WT p53 served as a positive control for reactivity with PAb1620, and Mut-p53 served as a negative control. The results are presented as the ratio of absorbance between the PAb1620 or PAb240 samples and the control […] sample. MCF7 and H1299-Mut-p53 (ts) A135V (TS) cells were used as positive controls for the WT p53 conformation (1620/240 ratio equals or exceeds 5:1).
96-well plates were coated using 3 different antibodies (1 type of antibody (Ab) in each well): PAb421 recognizes both conformations of p53 and binds to a C-terminus epitope; PAb240 recognizes mutant conformation of p53, binds to epitope within the core domain (amino acids 212-217) (Stephen, C. W. and D. P. Lane, Mutant conformation of p53. Precise epitope mapping using a filamentous phage epitope library. J. Mol. Biol., 1992. 225(3): p. 577-83) which is accessible to the Ab when the protein is partially denatured (for example, when the DBD is mutated); and PAb1620, which recognizes WT conformation of p53, binds to epitope with in the core domain (aa 156, 206-210), formed when folding is in WT conformation (Wang, P. L., F. Salt, and G. Winter, The ‘wild type’ conformation of p53: epitope mapping using hybrid proteins. Oncogene, 2001. 20(18): p. 2318-24).
Wells were incubated overnight (ON) with 100 μl Ab (5 μg/ml) in room temp (RT). The liquid was discarded, and the wells were washed 3 times with Phosphate buffered saline (PBS), 200 μl per each wash. Next, blocking with 200 μl of 5% bovine serum albumin (BSA) diluted in PBS in each well for 1.5 hours at room temperature (RT) was performed. Blocking buffer was discarded, followed by 3 washes in PBS as described above. Samples of mutant and WT p53 proteins (100 μl, 10 μg/ml), together with control peptides pCAP-710 (LPNPPER, SEQ ID NO:328) and pCAP-1220 ([…], SEQ ID NO:368) (5 μg/ml, Sigma Aldrich, or with test peptides 1-153 (5 μg/ml), were incubated for 1.5 hours together, and then added to the wells. Samples were rotated and incubated for 1 hour at RT. Samples were discarded, following 4 washes as described above, using Trisphosphate buffered saline (TPBS). Next, horseradish peroxidase (HRP) conjugated streptavidin p53 antibody (10 μg/ml HAF1355 (R&D)) was added to the wells and incubated at RT for 1 hour. After the plate was washed 3 times in TPBS, TMB substrate solution (50 μl each well, Thermo, (Cat. No. ES001-1L-K)) was added and incubated at 37° c. for 20 min. The reaction was stopped with 2M sulfuric acid (50 μl). The absorbance was measured at 450 nm with a spectrophotometer. Protein concentration was determined by dividing the absorbencies of each sample to the absorbance of Ab 421 samples.
The first screening strategy was based on ELISA. A version of sandwich ELISA was used to examine the effect of the lead test peptides on p53 conformation. To measure the conformational effect of the peptides on Mut-p53, a micro-titer plate was coated with PAb240, PAb1620 or pAb421 (as a positive control), and then the reactivity of p53 to these antibodies was examined. WT p53 served as a positive control for reactivity with PAb1620, and Mut-p53 served as a negative control. To examine the effect of a tested peptide it was added to a solution containing Mut-p53 and change in reactivity to either Ab was tested. […] Several ELISA experiments using different cell extracts were performed. […]

[1] = test system: SW-480 colon carcinoma cells (p53 R273H and P309S); assay: Xenograft model, Preclinical Trial #3 (Table 9 experiment 3); type: in vivo, CD1 nude/nude mice
Description: FIGS. 21A, 21B, 21C, 21D and 21E illustrate the in vivo effect of the indicated peptides in a mouse xenograft model. SW-480 colon cancer cells expressing endogenous mutant p53 and stably expressing luciferase were injected into the left hip of CD1 nude/nude mice. When tumors reached visible size, bioluminescence (indicative of the number of cancer cells) was measured with the IVIS200 system.
After observing the highly significant result in the MDA-MB-231 experiment, additional studies were aimed to extend the observation and examine cells from a different origin, harboring a different p53 point mutation. The SW-480 colon carcinoma cell line harbors two endogenous p53 mutations: the R273H and P309S. SW-480 cells were stably infected with the luciferase reporter gene, and 10^6 cells were subcutaneously injected into nude mice. The experiment contained 15 mice that were randomly divided during the experiment into 3 groups: a control group treated with a cocktail of 3 pCAPs previously proven ineffective, a group treated with a cocktail of 3 effective pCAP (250, 308, 325) and finally a group treated with a single peptide, the pCAP-325. The duration of the SW-480 experiment was 42 days from the point of cell implantation. The time line is relative to the first day of treatment which is marked as day 0. FIGS. 21A-E show tumor growth over time in all three groups as measured by live imaging in the IVIS.
4 pre-clinical experiments have already been performed thus far, using the xenograft model of Mut-p53 expressing cells transfected with a luciferase expression vector, allowing tumor monitoring by live imaging. Two experiments were performed with MDA-MB-231 triple negative breast cancer cells (p53 R280K), one experiment used SW-480 colon cancer carcinoma cells (p53 R273H) and another experiment used SKBR3 breast cancer cells (p53 R175H). In each experiment, cells from the corresponding cell line were injected subcutaneously and allowed the formation of well-established tumors visible both by eye and by live imaging (typically 2-3 weeks). A treatment regimen was then administered, composed of intra-tumor injection of either effective lead peptides or control peptides (showing no activity in-vitro) every three days for a period of up to 42 days.

[2] = test system: ES2 ovarian carcinoma cells (Mut-p53, position 241); assay: Annexin-V/PI apoptosis assay by flow cytometry; type: cell-based; settings: 12 ug/ml
Description: FIGS. 17A, 17B, 17C and 17D illustrate representative experiments performed on ES2 ovarian carcinoma cells expressing Mut-p53 mutated at position 241 within the DBD. […] Cells were harvested and an apoptosis assay (FIGS. 17A and 17B) was performed using the Annexin-V staining kit (Roche, REF 11 988 549 001). Non-fixed cells were stained with both anti Annexin FITC conjugated antibody to detect apoptotic cells, and PI (propidium iodide) to stain dead cells, according to the manufacturer's instructions. Stained cells were then analyzed by flow cytometry. A total of 10,000 cells was counted for each sample and divided into four sub populations according to staining intensity; cells negative for both PI and Annexin (−PI, −Annexin) are termed live; cells negative for PI and positive for Annexin (−PI, +Annexin) are going through early stages of apoptosis; cells positive for PI and Annexin (+PI, +Annexin) are dead cells that underwent an apoptotic process; and cells positive for PI and negative for Annexin (+PI, −Annexin) are assumed as dead cells that died by a non-apoptotic process such as necrosis.
FIGS. 17A and 17B illustrate a representative experiments performed on ES2 ovarian carcinoma cells (FIGS. 17A-D) expressing Mut-p53 with a mutation at positions 241 within the DBD. […] Cells were harvested, and 60% of the cells were taken for Annexin-PI apoptosis assay and 40% for extraction of RNA, cDNA synthesis and real time PCR analysis. Apoptosis was assayed using the Annexin-V staining kit (Roche, REF 11 988 549 001). Non-fixed cells were stained with both anti Annexin FITC conjugated antibody to detect apoptotic cells, and PI (propidium-iodide) to stain dead cells permeable to the compound, according to the manufacturer's instructions. Stained cells were then analyzed by flow cytometry. A total of 10,000 cells was counted for each sample and divided into four subpopulations according to staining intensity: cells negative for both PI and Annexin (−PI, −Annexin) are termed live; cells negative for PI and positive for Annexin (−PI, +Annexin) are going through early stages of apoptosis; cells positive for PI and Annexin (+PI, +Annexin) are dead cells that underwent an apoptotic process; and cells positive for PI and negative for Annexin (+PI, −Annexin) are assumed to be dead cells that died a non-apoptotic death such as necrosis. […] Treatment with pCAPs 242 and 250 causes a rapid increase in apoptotic cells followed by cell death and after 5 hours of treatment 12% of cells are Annexin positive and about 7% are dead. After 16 and 24 hours of treatment with pCAP 250 the apoptotic population increases to about 27% and dead cells accumulate to 29% at 16h and 36% after 24h. […] CD95 and Btg-2 expression is elevated up to 6 fold over non-treated cells.

Mut-p53 = assay: Total activity score over combined assays (Table 8); design: scale not given here; settings: for Activity Score: Table 10 summary of activity of the peptides tested; for PCR, activity score / Conformation, activity score: Table 8; for PCR, activity score: head span not shown; for Conformation, activity score: the 14 score columns c4-c17 stand under the heads Conformation, DNA binding, Viability, PCR

| Substance | Activity Score (Mut-p53) | other results |
| --- | --- | --- |
| LRCLLLLIGRVG [pCAP-24] | – | reactivity of R175H Mut-p53 towards PAb1620 and PAb240 (conformational change) (Mut-p53 (R175H p53)): increased reactivity of R175H Mut-p53 towards PAb1620 and decreased reactivity towards PAb240 |
| myr-RRIRDPRILLLHFD (Myristoyl-RRIRDPRILLLHFD) [pCAP-325] | – | IVIS average ratio to day 0 ([1]; Experiment 3, SW-480): 4.4%; Samples average size ([1]; Experiment 3, SW-480): 0.12; Samples average weight ([1]; Experiment 3, SW-480): 0.10; Number of total regression ([1]; Experiment 3, SW-480, 10 samples per group): 2; log of luminescence intensity mean at day 0 ([1]; day 0 (first day of treatment)): 8.97; average fold change in tumor size (from luminescence) ([1]; day 0 to day 35): 0.043 fold; tumor size decrease ([1]; day 0 to day 35, inferred from log of luminescence intensity mean): 95.6%; log of luminescence intensity mean at day 35 ([1]; day 35): 7.61; size and weight of extracted tumors compared to control peptides ([1]; p-value <0.05): significantly smaller in size and weight |
| myr-RRLIVRILKLPNPPER (Myristoyl-RRLIVRILKLPNPPER) [pCAP-242] | – | apoptosis and cell death time course compared with pCAP 250 [2]: attenuated and slower; Annexin positive cells ([2]; after 5 hours of treatment): 12%; dead cells ([2]; after 5 hours of treatment): about 7% |
| pCAP305 (IREFDPRRIR) | 4 | – |
| pCAP306 (Myristoyl-RLIRIRILM) | 6 | – |
| pCAP307 (HDPRIIRIR) | 2 | – |
| pCAP308 (Myristoyl-RRICRFIRICRVR; cysteine pairing not given here) | 40 | PCR, activity score (Mut-p53): 6 |
| pCAP309 (HPHVILPRIRIRIR) | 0 | – |
| pCAP310 (RLRCLLLLIGRVGRR) | 4 | – |
| pCAP311 (EIHTIHLLPERR) | 0 | – |
| pCAP312 (RRPRIPDYIL) | 3 | – |
| pCAP313 (Myristoyl-RRREILHPEFRILYE) | 8 | – |
| pCAP314 (RSTPHIHEFIRR) | 3 | – |
| pCAP315 (LHFSHIDRR) | 9 | – |
| pCAP316 (Myristoyl-DIHTIHLPDTHRR) | 7 | – |
| pCAP317 (RRDIHTIHPFYQ) | 43 | PCR, activity score (Mut-p53): 3; Conformation, activity score (Mut-p53): 5 |
| pCAP318 (RPEFHSFHPIYERR) | 6 | – |
| pCAP319 (SHDFYPHWMRERIR) | 3 | – |
| pCAP320 (EPSHPRSRYPRTF) | 0 | – |
| pCAP321 (RNIIIRDFIHFSHIDR) | 0 | – |
| pCAP322 (RRIRDPQIK(Myristoyl)LEIHFSHID; not fully specified; printed as RRIRDPQIK-myrLEIHFSHID) | 0 | – |
| pCAP323 (Myristoyl-DLHTIHIPRDRR) | 0 | – |
| pCAP324 (SHDFPHREPRPERR) | 0 | – |
| pCAP325 (Myristoyl-RRIRDPRILLLHFD) | 61 | PCR, activity score (Mut-p53): 6; Conformation, activity score (Mut-p53): 4 |
| pCAP326 (Myristoyl-RRHNAHHSTPHPDDR) | 53 | PCR, activity score (Mut-p53): 4; Conformation, activity score (Mut-p53): 3 |

From US11028127B2, “Peptides capable of reactivating p53 mutants” (Yeda Research and Development Co. Ltd., priority 2013, dated 2021)
